Laboratory results published in PMC10817917, “Alkyl deoxyglycoside-polymyxin combinations against critical priority carbapenem-resistant gram-negative bacteria” (Scientific Reports, 2024).
Values after ≈ are worked out from the molar mass of the structure shown. “Also recorded” adds a separate entry of the source. Like-named read-outs stand apart in the source and are kept apart here.

Assays:
A. baumannii CQ4322 = assay: Broth microdilution MIC/MBC, glycosides with or without polymyxins; type: cell-based, Acinetobacter baumannii; settings: for MIC: Acinetobacter baumannii, CQ4322
B. cereus ATCC 14579 = settings: cited from earlier work
E. coli K12 = settings: cited from earlier work
E. coli NCTC 13846 = assay: Broth microdilution MIC/MBC, glycosides with or without polymyxins; type: cell-based, Escherichia coli; settings: strain B
[1] = PE vs phosphatidylcholine (PC); cited from earlier work
K. pneumoniae CQ1942 = assay: Broth microdilution MIC, glycosides with or without polymyxins; type: cell-based, Klebsiella pneumoniae; settings: for MIC: Klebsiella pneumoniae, CQ1942
E. coli ATCC 25922 = assay: Broth microdilution MIC/MBC, glycosides with or without polymyxins; type: cell-based, Escherichia coli; settings: for MIC: Escherichia coli, ATCC25922
E. coli K12 spheroplasts = settings: only the IM left intact; cited from earlier work
[2] = alone, read-out: MICA (MIC of each compound individually)
[3] = combination with the lowest FICI
[4] = compound + colistin, lowest FICI

With `CCCCCCCCCCCCO[C@H]1C[C@H](O)[C@@H](O)[C@H](C)O1` [Compound 3, dodecyl 2,6-dideoxy-α-L-arabino-hexopyranoside] the MIC (A. baumannii CQ4322; agent alone, no adjuvant (polymyxin conc. 0), strain G, read-out: MIC) was > 100 µg/mL, the MIC (A. baumannii CQ4322; [2]) was > 100 µg/mL and the “MIC of colistin in combination with the compound” value (“MIC … with the compound” for short) (A. baumannii CQ4322; Cpd conc. 0.4 μg/mL, strain G) was 0.5 µg/mL. For the same molecule, the “MIC … with the compound” value (A. baumannii CQ4322; Cpd conc. 0.8 μg/mL, strain G) was 0.5 µg/mL, the “MIC … with the compound” value (A. baumannii CQ4322; Cpd conc. 3.125 μg/mL, strain G) was 0.5 µg/mL and the “MIC … with the compound” value (A. baumannii CQ4322; Cpd conc. 6.25 μg/mL, strain G) was 0.25 µg/mL. For the same molecule, the “MIC … with the compound” value (A. baumannii CQ4322; Cpd conc. 12.5 μg/mL, strain G) was 0.25 µg/mL, the “MIC … with the compound” value (A. baumannii CQ4322; Cpd conc. […], strain G) was 0.5 µg/mL and the “MIC of compound in combination with PMB” value (A. baumannii CQ4322; PMB 0.25 μg/mL, strain G) was > 100 µg/mL. The “MIC of compound in combination with PMB” value (A. baumannii CQ4322; PMB 0.5 μg/mL, strain G) was 0.8 µg/mL, the “MIC of compound in combination with colistin” value (A. baumannii CQ4322; colistin 0.06 μg/mL, strain G) was > 100 µg/mL and the “MIC of compound in combination with colistin” value (A. baumannii CQ4322; colistin 0.125 μg/mL, strain G) was > 100 µg/mL. The “MIC of compound in combination with colistin” value (A. baumannii CQ4322; colistin 0.25 μg/mL, strain G) was 6.3 µg/mL, the “MIC of compound in combination with colistin” value (A. baumannii CQ4322; colistin 0.5 μg/mL, strain G) was ≤ 0.1 µg/mL and the “MICA(A + B) (MIC of compound in combination with colistin)” value (“MICA(A + B)” below) (A. baumannii CQ4322; [3]) was 6.25 µg/mL. For the same molecule, the “MICB(A + B) (MIC of colistin in combination with compound)” value (“MICB(A + B)” for short) (A. baumannii CQ4322; [3]) was 0.25 µg/mL, the “Interpretation (of FICI)” value (A. baumannii CQ4322; compound + colistin) was “Additive (from 0.5 to 1.0 were additive)” and the FICI (A. baumannii CQ4322; [4]) was 0.53. The MIC (B. cereus ATCC 14579) was 16 µg/mL (≈ 50.6 µM), the MIC (E. coli K12) was 256 µg/mL (≈ 809 µM) and the “MIC … with the compound” value (E. coli NCTC 13846; Cpd conc. 0.4 μg/mL) was > 0.5 µg/mL. For the same molecule, the “MIC … with the compound” value (E. coli NCTC 13846; Cpd conc. 0.8 μg/mL) was > 0.5 µg/mL, the “MIC … with the compound” value (E. coli NCTC 13846; Cpd conc. 3.125 μg/mL) was > 0.5 µg/mL and the “MIC … with the compound” value (E. coli NCTC 13846; Cpd conc. 6.25 μg/mL) was > 0.5 µg/mL. For the same molecule, the “MIC … with the compound” value (E. coli NCTC 13846; Cpd conc. 12.5 μg/mL) was > 0.5 µg/mL, the “MIC … with the compound” value (E. coli NCTC 13846; Cpd conc. […]) was > 0.5 µg/mL and the MIC (E. coli NCTC 13846; Escherichia coli, NCTC13846, agent alone, no adjuvant (polymyxin conc. 0), read-out: MIC) was > 100 µg/mL. The “MIC of compound in combination with PMB” value (E. coli NCTC 13846; PMB 0.25 μg/mL) was > 100 µg/mL, the “MIC of compound in combination with PMB” value (E. coli NCTC 13846; PMB 0.5 μg/mL) was > 100 µg/mL and the “MIC of compound in combination with colistin” value (E. coli NCTC 13846; colistin 0.06 μg/mL) was > 100 µg/mL. For the same molecule, the “MIC of compound in combination with colistin” value (E. coli NCTC 13846; colistin 0.125 μg/mL) was > 100 µg/mL, the “MIC of compound in combination with colistin” value (E. coli NCTC 13846; colistin 0.25 μg/mL) was > 100 µg/mL and the “MIC of compound in combination with colistin” value (E. coli NCTC 13846; colistin 0.5 μg/mL) was > 100 µg/mL. For the same molecule, the “interaction with phosphatidylethanolamine (PE)” value [1] was “selectively interact with phosphatidylethanolamine (PE); also recorded: Confirmed PE binder”, the “MIC … with the compound” value (K. pneumoniae CQ1942; Cpd conc. 0.4 μg/mL, strain E) was 0.5 µg/mL and the “MIC … with the compound” value (K. pneumoniae CQ1942; Cpd conc. 0.8 μg/mL, strain E) was 0.5 µg/mL. For the same molecule, the “MIC … with the compound” value (K. pneumoniae CQ1942; Cpd conc. 3.125 μg/mL, strain E) was 0.25 µg/mL, the “MIC … with the compound” value (K. pneumoniae CQ1942; Cpd conc. 6.25 μg/mL, strain E) was 0.25 µg/mL and the “MIC … with the compound” value (K. pneumoniae CQ1942; Cpd conc. 12.5 μg/mL, strain E) was 0.25 µg/mL. The “MIC … with the compound” value (K. pneumoniae CQ1942; Cpd conc. […], strain E) was 0.5 µg/mL, the MIC (K. pneumoniae CQ1942; agent alone, no adjuvant (polymyxin conc. 0), strain E, read-out: MIC) was > 100 µg/mL and the MIC (K. pneumoniae CQ1942; [2]) was > 100 µg/mL. The “MIC of compound in combination with PMB” value (K. pneumoniae CQ1942; PMB 0.25 μg/mL, strain E) was > 100 µg/mL, the “MIC of compound in combination with PMB” value (K. pneumoniae CQ1942; PMB 0.5 μg/mL, strain E) was ≤ 0.1 µg/mL and the “MIC of compound in combination with colistin” value (K. pneumoniae CQ1942; colistin 0.06 μg/mL, strain E) was > 100 µg/mL. The “MIC of compound in combination with colistin” value (K. pneumoniae CQ1942; colistin 0.125 μg/mL, strain E) was > 100 µg/mL, the “MIC of compound in combination with colistin” value (K. pneumoniae CQ1942; colistin 0.25 μg/mL, strain E) was 3.1 µg/mL and the “MIC of compound in combination with colistin” value (K. pneumoniae CQ1942; colistin 0.5 μg/mL, strain E) was ≤ 0.1 µg/mL. For the same molecule, the “MICA(A + B)” value (K. pneumoniae CQ1942; [3]) was 3.125 µg/mL, the “MICB(A + B)” value (K. pneumoniae CQ1942; [3]) was 0.25 µg/mL and the “Interpretation (of FICI)” value (K. pneumoniae CQ1942; compound + colistin) was “Additive (from 0.5 to 1.0 were additive)”. The FICI (K. pneumoniae CQ1942; [4]) was 0.52, the “MIC … with the compound” value (E. coli ATCC 25922; Cpd conc. 0.4 μg/mL, strain A) was 0.5 µg/mL and the “MIC … with the compound” value (E. coli ATCC 25922; Cpd conc. 0.8 μg/mL, strain A) was 0.5 µg/mL. The “MIC … with the compound” value (E. coli ATCC 25922; Cpd conc. 3.125 μg/mL, strain A) was 0.25 µg/mL, the “MIC … with the compound” value (E. coli ATCC 25922; Cpd conc. 6.25 μg/mL, strain A) was 0.25 µg/mL and the “MIC … with the compound” value (E. coli ATCC 25922; Cpd conc. 12.5 μg/mL, strain A) was 0.25 µg/mL. The “MIC … with the compound” value (E. coli ATCC 25922; Cpd conc. […], strain A) was 0.5 µg/mL, the MIC (E. coli ATCC 25922; agent alone, no adjuvant (polymyxin conc. 0), strain A, read-out: MIC) was > 100 µg/mL and the MIC (E. coli ATCC 25922; [2]) was > 100 µg/mL. For the same molecule, the “MIC of compound in combination with PMB” value (E. coli ATCC 25922; PMB 0.25 μg/mL, strain A) was 3.1 µg/mL, the “MIC of compound in combination with PMB” value (E. coli ATCC 25922; PMB 0.5 μg/mL, strain A) was ≤ 0.1 µg/mL and the “MIC of compound in combination with colistin” value (E. coli ATCC 25922; colistin 0.06 μg/mL, strain A) was > 100 µg/mL. For the same molecule, the “MIC of compound in combination with colistin” value (E. coli ATCC 25922; colistin 0.125 μg/mL, strain A) was > 100 µg/mL, the “MIC of compound in combination with colistin” value (E. coli ATCC 25922; colistin 0.25 μg/mL, strain A) was 3.1 µg/mL and the “MIC of compound in combination with colistin” value (E. coli ATCC 25922; colistin 0.5 μg/mL, strain A) was ≤ 0.1 µg/mL. For the same molecule, the “MICA(A + B)” value (E. coli ATCC 25922; [3]) was 3.125 µg/mL, the “MICB(A + B)” value (E. coli ATCC 25922; [3]) was 0.25 µg/mL and the “Interpretation (of FICI)” value (E. coli ATCC 25922; compound + colistin) was “Additive (from 0.5 to 1.0 were additive)”. For the same molecule, the FICI (E. coli ATCC 25922; [4]) was 0.52 and the MIC (E. coli K12 spheroplasts) was 4 µg/mL (≈ 12.6 µM).
